Where two headings read alike, the source gives them in different places.
Columns and labels:
murine iNOS = murine iNOS (Mus musculus (Mouse), UniProt P29477); test: Oxyhemoglobin NO capture assay with purified NOS; assay type: biochemical
Protocol: (§1) The oxyhemoglobin NO assays were performed with purified NOSs using a Biotek Gen5™ microplate reader as previously reported. […] For iNOS, calmodulin and CaCl2 were omitted because iNOS is calcium independent. […] The calculated standard deviations of the assays were less than 10% with all NOSs. […] The selectivity of antagonism of nNOS was determined by calculating the ratios of the Ki values with iNOS or eNOS to those with rat nNOS.

rat nNOS = rat nNOS (Rattus norvegicus (Rat), UniProt P29476); test: Oxyhemoglobin NO capture assay with purified NOS; assay type: biochemical
Protocol: as §1

bsNOS = bsNOS (Bacillus subtilis (strain 168), UniProt O34453); test: Imidazole displacement, spectral binding constant KS; details: KS (bsNOS), Table 5
bovine eNOS = bovine eNOS (Bos taurus (Bovine), UniProt P29473); test: Oxyhemoglobin NO capture assay with purified NOS; assay type: biochemical; details: for Ki: read-out: Ki eNOS
Protocol: as §1

[1] = ratio Ki eNOS / Ki rat nNOS, Table 9
[2] = ratio Ki iNOS / Ki rat nNOS, Table 9

Sequence of bsNOS (O34453 whole entry): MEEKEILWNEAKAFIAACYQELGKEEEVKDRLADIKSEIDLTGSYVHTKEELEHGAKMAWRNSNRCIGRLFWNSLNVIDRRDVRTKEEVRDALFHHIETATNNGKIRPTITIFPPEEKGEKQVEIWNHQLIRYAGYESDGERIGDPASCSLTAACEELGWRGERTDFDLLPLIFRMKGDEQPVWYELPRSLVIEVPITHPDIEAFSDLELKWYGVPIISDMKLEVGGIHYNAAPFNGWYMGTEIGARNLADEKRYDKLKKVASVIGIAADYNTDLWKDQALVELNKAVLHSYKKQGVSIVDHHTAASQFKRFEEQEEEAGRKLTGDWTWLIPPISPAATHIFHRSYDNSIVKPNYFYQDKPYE

Compound: Cc1cc(N)nc(CCc2cccc([C@H](N)Cc3cc(C)cc(N)n3)c2)c1 [Compound 3R, (R)-6-(2-Amino-2-(3-(2-(6-amino-4-methylpyridin-2-yl)ethyl)phenyl)ethyl)-4-methylpyridin-2-amine]
- Ki (murine iNOS; Table 13, read-out: iNOS Ki): 15.6 µM
- Ki (rat nNOS; Table 13, read-out: nNOS Ki): 0.122 µM

Compound: Cc1cc(N)nc(CCc2cc(F)cc(NCc3ccc(F)cc3)c2)c1 [Compound 24, 6-(3-Fluoro-5-((4-fluorobenzyl)amino)phenethyl)-4-methylpyridin-2-amine]
- Kd (bsNOS): 29 ± 4 µM

Compound: CNCCN(c1cc(F)cc(CCc2cc(C)cc(N)n2)c1)C1CC1 [Compound 23e, N^1-(3-(2-(6-amino-4-methylpyridin-2-yl)ethyl)-5-fluorophenyl)-N^1-cyclopropyl-N^2-methylethane-1,2-diamine]
- Ki (bovine eNOS; Table 9): 7.89 µM
- e/n selectivity (bovine eNOS; [1]): 140.9
- Ki (murine iNOS; Table 9, read-out: Ki iNOS): 8.33 µM
- i/n selectivity (murine iNOS; [2]): 148.7
- Ki (rat nNOS; Table 9, read-out: Ki Rat nNOS): 0.056 µM

Compound: CNCCN(C)Cc1cccc(Cc2cc(C)cc(N)n2)c1 [Compound 32]
- Kd (bsNOS): 1.6 ± 0.6 µM

Compound: Cc1ccnc(CCc2cccc([C@H](N)Cc3cc(C)cc(N)n3)c2)c1 [Compound 5R, (R)-6-(2-Amino-2-(3-(2-(4-methylpyridin-2-yl)ethyl)phenyl)ethyl)-4-methylpyridin-2-amine]
- e/n selectivity (bovine eNOS; ratio Ki eNOS / Ki nNOS, Table 13): 240
- Ki (murine iNOS; Table 13, read-out: iNOS Ki): > 100 µM
- i/n selectivity (murine iNOS; ratio Ki iNOS / Ki nNOS, Table 13): >22
- Ki (rat nNOS; Table 13, read-out: nNOS Ki): 4.37 µM

Compound: Nc1ccc2ccc(CNCCCc3cccc(F)c3)cc2n1 [Compound 21]
- Kd (bsNOS): 3.2 ± 0.1 µM

Compound: Cc1cc(N)nc(CCc2cc(C#N)cc(NCc3cccc(F)c3)c2)c1 [Compound 23, 3-(2-(6-Amino-4-methylpyridin-2-yl)ethyl)-5-((3-fluorobenzyl)amino)benzonitrile]
- Kd (bsNOS): 9.6 ± 1.3 µM

Compound: Cc1cc(N)nc(CCc2cc(C#N)cc(N(C)CCNC(C)C)c2)c1 [Compound 21b]
- Ki (bovine eNOS; Table 9): 39.9 µM
- e/n selectivity (bovine eNOS; [1]): 320.1
- Ki (murine iNOS; Table 9, read-out: Ki iNOS): 45.1 µM
- i/n selectivity (murine iNOS; [2]): 361.5
- Ki (rat nNOS; Table 9, read-out: Ki Rat nNOS): 0.125 µM

Compound: Cc1cc(N)nc(COC[C@H](N)[C@H](C)OCc2cc(C)cc(N)n2)c1 [Compound 11]
- Kd (bsNOS): 1.1 ± 0.1 µM

Compound: Cc1cc(N)nc(CCc2cc(F)cc(NCCN(C)C)c2)c1 [Compound 23a, N^1-(3-(2-(6-Amino-4-methylpyridin-2-yl)ethyl)-5-fluorophenyl)-N^2,N^2-dimethylethane-1,2-diamine]
- Ki (bovine eNOS; Table 9): 9.58 µM
- e/n selectivity (bovine eNOS; [1]): 136.9
- Ki (murine iNOS; Table 9, read-out: Ki iNOS): 3.31 µM
- i/n selectivity (murine iNOS; [2]): 47.3
- Ki (rat nNOS; Table 9, read-out: Ki Rat nNOS): 0.07 µM

Compound: Cc1cc(N)nc(-c2ccc(CNCc3cccc(F)c3)cc2)c1 [Compound 29, 6-(4-(((3-Fluorobenzyl)amino)methyl)phenyl)-4-methylpyridin-2-amine]
- Kd (bsNOS): 1.5 ± 0.3 µM

Compound: Nc1ccc2ccc(CCNCc3cccc(F)c3)cc2n1 [Compound 18]
- Kd (bsNOS): 0.97 ± 0.04 µM

Compound: CNCCN(C)Cc1ccc(-c2cc(C)cc(N)n2)cc1 [Compound 26, N1-(4-(6-amino-4-methylpyridin-2-yl)benzyl)-N1,N2-dimethylethane-1,2-diamine]
- Kd (bsNOS): 6.3 ± 0.3 µM

Compound: Cc1cc(N)nc(CCc2cc(F)cc(NCc3cccc(Cl)c3)c2)c1 [Compound 23f, 6-(3-((3-Chlorobenzyl)amino)-5-fluorophenethyl)-4-methylpyridin-2-amine]
- Ki (bovine eNOS; Table 9): 7.08 µM
- e/n selectivity (bovine eNOS; [1]): 262.0
- Ki (murine iNOS; Table 9, read-out: Ki iNOS): 9.56 µM
- i/n selectivity (murine iNOS; [2]): 354.1
- Ki (rat nNOS; Table 9, read-out: Ki Rat nNOS): 0.027 µM

Compound: Cc1cc(N)nc(CCc2cccc([C@@H](N)Cc3cc(C)cc(N)n3)c2)c1 [Compound 3S, (S)-6-(2-Amino-2-(3-(2-(6-amino-4-methylpyridin-2-yl)ethyl)phenyl)ethyl)-4-methylpyridin-2-amine]
- Ki (murine iNOS; Table 13, read-out: iNOS Ki): 17.7 µM
- Ki (rat nNOS; Table 13, read-out: nNOS Ki): 0.144 µM

Compound: Nc1ccc2cc(CCNCc3cccc(F)c3)ccc2n1 [Compound 16]
- Kd (bsNOS): 95 ± 20 µM

Compound: Cc1cc(N)nc(CCc2cc(F)cc(NCc3cccnc3)c2)c1 [Compound 23g, 6-(3-Fluoro-5-((pyridin-3-ylmethyl)amino)phenethyl)-4-methylpyridin-2-amine]
- Ki (bovine eNOS; Table 9): 10.3 µM
- e/n selectivity (bovine eNOS; [1]): 10.0
- Ki (murine iNOS; Table 9, read-out: Ki iNOS): 11 µM
- i/n selectivity (murine iNOS; [2]): 10.7
- Ki (rat nNOS; Table 9, read-out: Ki Rat nNOS): 1.03 µM

Source: patent US9951014B2, “Mammalian and bacterial nitric oxide synthase inhibitors” (Northwestern University, priority 2014, dated 2018)
